Measurements taken from patent US8691764B2, “Inhibitors of NF-κB activity” (The Research Foundation for the State University of New York, priority 2007, dated 2014).
Where no end group is shown, it is not given here.

How the values were obtained:
annexin 1 = assay: Induction of annexin 1 in BxPC-3 cells, Western blot of nuclear and cytoplasmic extracts; format: cell-based, human; conditions: for expression of annexin 1: 5 mM conventional ASA, 100 μM cortisone; for annexin 1 expression with conventional NSAIDs: 6 h, each at 1 mM
Description: The human pancreatic cancer cell line, BxPC-3, or the colon cancer cell line HT-29, both from ATCC (Manassas, Va.) were maintained and grown in RPMI 1640 or McCoy's 5A medium (Cellgro) supplemented with 10% fetal bovine serum (HyClone) and 1% penicillin/streptomycin (Cellgro) in a humidified incubator at 37° C. and 5% CO2.
The cell fractions were obtained as described by Andrews and Faller (N. C. Andrews and D. V. Faller, Nucleic Acids Res. 19:2499 (1991)) with modification. Briefly, the cells were pelleted after treatment and washed three times with PBS. The cell pellets were resuspended in ice cold buffer A (10 mM HEPES, pH 7.9, 10 mM KCl, 1.5 mM MgCI2, 0.5 mM DTT, 0.5 mM PMSF) with protease inhibitor cocktail (Sigma) and incubated on ice for 15 min with occasional mixing by gently tapping the tube. The cell lysates were centrifuged up to 5000 rpm for three times. The supernatants were collected as cytoplasmic extracts. Nuclear pellets were washed with buffer A and resuspended in buffer C (20 mM HEPES, pH 7.9, 450 mM NaCl, 1.5 mM MgCI2, 0.2 mM EDTA, 0.5 mM DTT, 0.5 mM PMSF, 25% Glycerol) with protease inhibitor cocktail (Sigma) and incubated on ice for 30 min with occasional mixing to extract nuclear proteins. Nuclear extracts were cleared by centrifugation (14,800 rpm for 10 min) and the supernatants were collected as nuclear extracts.
For Western blotting, the proteins from both cytoplasmic extracts and nuclear extracts were separated by SDS-polyacrylamide gel electrophoresis and transferred onto PVDF membranes (Millipore). The membranes were blocked in 5% nonfat dry milk-TBS-T (20 mM Tris-HCl, pH 7.5, 500 mM NaCl. 0.3% Tween 20) at room temperature (RT) for an hour and probed with anti-annexin 1, c-IAP-1, c-IAP-2, and TRAF-1 (Santa Cruz Biotechnology, Inc. CA), and anti-Bcl-2 antibodies (Cell Signaling Technology), in 5% nonfat dry milk-TBS-T at 4° C. overnight. The blots were washed three times with TBS-T for 5 min each wash and incubated with horseradish peroxidase-conjugated secondary antibody (Santa Cruz) in 5% nonfat dry milk-TBS-T at RT for an hour. After five washes with TBS-T, the blots were developed with the enhanced chemiluminescence system (ECL™ Western Blotting System, Amersham Biosciences) and exposed to x-ray film according to the manufacturer's instructions. Protein loading was normalized using anti-β-actin antibodies (Santa Cruz Biotechnology, Inc).

NF-κB [1] = target: T1, NF-κB (Homo sapiens, UniProt P19838+Q04206); assay: NF-κB activity ELISA (TransBinding NF-κB assay kit), BxPC-3 cells; format: cell-based; design: endogenous in cells; host or cells: BxPC-3; conditions: for NF-κB activity with peptides of annexin 1: BxPC-3 cells, 30 μM, 3 h
T1 sequence (Q04206 whole entry): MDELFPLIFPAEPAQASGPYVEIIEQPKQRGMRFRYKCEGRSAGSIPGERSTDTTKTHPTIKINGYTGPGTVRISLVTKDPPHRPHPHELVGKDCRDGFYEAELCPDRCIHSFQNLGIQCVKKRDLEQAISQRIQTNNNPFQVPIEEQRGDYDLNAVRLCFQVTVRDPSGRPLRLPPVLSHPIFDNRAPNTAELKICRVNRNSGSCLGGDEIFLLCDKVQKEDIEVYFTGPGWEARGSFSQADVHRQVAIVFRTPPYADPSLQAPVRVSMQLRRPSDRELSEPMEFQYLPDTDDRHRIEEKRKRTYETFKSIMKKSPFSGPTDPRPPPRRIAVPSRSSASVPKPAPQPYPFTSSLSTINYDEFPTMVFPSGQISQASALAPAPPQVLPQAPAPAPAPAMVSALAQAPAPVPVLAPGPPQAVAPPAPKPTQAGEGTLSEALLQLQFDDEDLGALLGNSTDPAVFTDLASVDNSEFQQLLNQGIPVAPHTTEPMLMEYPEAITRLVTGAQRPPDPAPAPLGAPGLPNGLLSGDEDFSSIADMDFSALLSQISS
T1 sequence (P19838 1-433 limits assumed): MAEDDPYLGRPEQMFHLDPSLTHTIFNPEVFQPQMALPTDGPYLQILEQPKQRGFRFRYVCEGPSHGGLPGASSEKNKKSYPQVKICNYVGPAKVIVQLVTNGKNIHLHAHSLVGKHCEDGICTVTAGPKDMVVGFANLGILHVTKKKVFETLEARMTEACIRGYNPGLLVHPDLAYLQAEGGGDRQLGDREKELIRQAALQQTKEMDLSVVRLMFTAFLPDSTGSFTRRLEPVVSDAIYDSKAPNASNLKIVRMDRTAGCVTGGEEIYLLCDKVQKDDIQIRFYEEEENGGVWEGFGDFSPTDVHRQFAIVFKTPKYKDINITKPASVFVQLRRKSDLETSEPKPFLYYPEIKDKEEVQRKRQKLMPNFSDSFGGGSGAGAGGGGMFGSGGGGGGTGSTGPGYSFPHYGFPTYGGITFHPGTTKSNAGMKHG
Description: (§1) NF-κB activity was measured in these cells using the TransBinding NF-κB assay kit and following the instructions of the manufacturer (Panomics). Briefly, nuclear extracts obtained as described above, were incubated for 30 min in an ELISA plate coated with NF-κB consensus DNA sequence to which p50 protein can bind. After binding, antibody against p50 was added and incubated for 1 hour, followed by HRP-conjugated antibody for 1 hour. Afterwards, luminol/enhancer solution and stable peroxide solution were added and chemoluminescence was detected using a luminometer (Bio-Rad).

[2] = cortisol=1; cited from earlier work
[3] = test system: SW480 human colon cancer cells; assay: Apoptosis, Cell Death Detection ELISA, SW480 cells; format: cell-based
Description: Apoptosis was determined using the Cell Death Detection ELISA^PLUS assay kit according to the manufacturer's protocol (Roche, Indianapolis, Ind.). Briefly, the cells were treated with either NO-ASA or Dex for 3 h. Cells were harvested and washed three times with PBS. The cell pellet was resuspended with lysis buffer and incubated for 30 min at RT. Cell […] at 200×g for 10 min. The ELISA assay was performed using 20 μl cell lysate and 80 μl Immunoreagent (containing 72 μl Incubation Buffer, 4 μl Anti-histone-biotin Solution, and 4 μl Anti-DNA-POD Solution) per micro-plate well. The micro-plate was covered with an adhesive foil and incubated on a shaker under gentle shaking at 200 rpm for 2 h at RT. The solution in each well was removed thoroughly by tapping and the pellets were rinsed three times with 200 μl Incubation Buffer. […] The absorbance was measured at 405 nm using the SpectraMax micro-plate reader (Molecular Devices, Sunnyvale).
BxPC-3 or SW480 cells were treated with 30 μM of each of the peptides of annexin 1 for 3 h. NF-κB activity and apoptosis were measured in whole cell lysates using an ELISA assay as described in EXAMPLES 2 and 4. […]

NF-κB [4] = target: T1, NF-κB; assay: NF-κB activity ELISA, SW480 cells; format: cell-based; design: endogenous in cells; host or cells: SW480
Description: as §1, with “In the same manner as for NO-ASA, BxPC-3 cells were treated for 6 h with different corticosteroid inflammatory drugs, each at 4 μM, and tested for their ability to induce annexin 1. […] NF-κB activity” for “NF-κB activity”
BxPC-3 or SW480 cells were treated with 30 μM of each of the peptides of annexin 1 for 3 h. NF-κB activity and apoptosis were measured in whole cell lysates using an ELISA assay as described in EXAMPLES 2 and 4. […] These peptides are Ac-Gln-Ala-Trp, as set forth in SEQ ID NO:1, the peptide Ac-Phe-Gln-Ala-Tip, as set forth in SEQ ID NO:2 and the peptide Ac-Phe-Leu-Lys-Gln-Ala-Trp, as set forth in SEQ ID NO:3. Other depicted acetylated peptides are Ac-Phe-Leu-Lys (SEQ ID NO:14), Ac-Lys-Gln-Ala-Trp (SEQ ID NO:15), and Ac-Val-Ser-Glu-Lys-Gln-Ala-Trp (SEQ ID NO:16).

SW480 tumor xenografts = assay: SW480 human colon cancer xenograft in nude mice; format: in vivo, BALB/c nude mice; conditions: i.p. 40 μg once daily
Description: Female 6-week-old BALB/c nude mice were obtained from The Jackson Laboratory (Bar Harbor, Me.). The animals were housed in a climate- and light-controlled room. Food and water were allowed ad libitum. The SW480 human colon cancer cell line was used to establish xenografts in nude mice. 2×10^6 cells in 100 μl of PBS were injected subcutaneously (s.c.) into the upper portion of the left hind limb of the mice, where they grew as solid tumors. The size of the tumor was measured two times per week using a Venier caliper. The tumor volume was determined using the formula V=L×W(L+W/2)×0.56.
On the 7th day after inoculation, when the tumor size reached an average 240 mm^3, 18 mice were treated with QW-3 administered by i.p. injection of at a dose of 40 μg once daily. The control group (n=18) was administered the vehicle alone. The mice were sacrificed on day 12, and tumors were resected and stored in liquid nitrogen and formalin until further analysis.
Immunohistochemistry was performed on paraffin sections of the tumors. All sections were incubated at 95-100° C. in WCAP reagent (Surgipath) for 30 min, washed and then incubated in 10:1 Methanol:H2O2 for 10 min. Sections were then incubated in rabbit polyclonal PCNA (Santa Cruz, Calif.) or antibody detecting NF-κB activation (Chemicon) for 1 h after which immunoreactivity was detected with an Envision assay kit and DAB reagent (DakoCytomation). All sections were counterstained with haematoxylin and mounted. Negative controls included a non-specific antibody.

NF-κB activity with peptides of annexin 1 (NF-κB [1]) | Compound | annexin 1 expression with conventional NSAIDs (annexin 1) | other results
 | CC(=O)Oc1ccccc1C(=O)O [conventional ASA, aspirin] | no effect | expression of annexin 1 (annexin 1): failed to induce; activity of NF-κB with weak anti-inflammatory drugs (NF-κB [1]; cells and concentration not given): do not inhibit
inhibited NF-κB activity | Ac-Phe-Gln-Ala-Trp (Ac-FQAW) [Ac-Phe-Gln-Ala-Tip] |  | 
 | CC1=C(CC(=O)O)c2cc(F)ccc2/C1=C\c1ccc([S+](C)[O-])cc1 (stereo not drawn) [sulindac] | no effect | 
 | COc1ccc2c(c1)c(CC(=O)O)c(C)n2C(=O)c1ccc(Cl)cc1 [indomethacin] | no effect | 
 | C[C@]12C=CC(=O)C=C1CC[C@H]1[C@@H]3C[C@@H](O)[C@](O)(C(=O)CO)[C@@]3(C)C[C@H](O)[C@@]12F [triamincinolone] |  | relative anti-inflammatory potency [2]: 5
inhibited NF-κB activity | Ac-Phe-Leu-Lys-Gln-Ala-Trp (Ac-FLKQAW) |  | 
inhibited NF-κB activity | Ac-AMVSEFKQAWFIENEEQQYVQTVK [Ac2-26] |  | 
 | C[C@]12CCC(=O)C=C1CC[C@@H]1[C@@H]2C(=O)C[C@@]2(C)[C@H]1CC[C@]2(O)C(=O)CO [cortisone] |  | expression of annexin 1 (annexin 1): failed to induce
 | CN1C(C(=O)Nc2ccccn2)=C(O)c2ccccc2S1(=O)=O [piroxicam] | no effect | 
 | C[C@]12CCC(=O)C=C1CC[C@@H]1[C@@H]2[C@@H](O)C[C@@]2(C)[C@H]1CC[C@]2(O)C(=O)CO [cortisol] |  | relative anti-inflammatory potency [2]: 1
 | O=C(O)c1ccccc1O [salicylic acid] | no effect | 
inhibited NF-κB activity | Ac-Gln-Ala-Trp [QW-3] |  | apoptosis [3]: enhanced SW480 cell apoptosis; NF-κB activity (NF-κB [4]): inhibited NF-κB activity in a concentration-dependent manner; blood levels of IL-6 (SW480 tumor xenografts): decreased levels of IL-6; blood levels of IL-10 (SW480 tumor xenografts): increased the blood levels of IL-10; tumor growth (SW480 tumor xenografts): suppressed tumor growth; NF-κB activity in tumors (SW480 tumor xenografts; tumor sections): inhibited NF-κB activity; cell proliferation by expression of PCNA (immunohistochemistry) (SW480 tumor xenografts; tumor sections): inhibited cell proliferation
 | CC(C)Cc1ccc(C(C)C(=O)O)cc1 (stereo not drawn) [ibuprofen] | no effect | 
inhibited NF-κB activity | Ac-Ala-Met-Val-Ser-Glu-Phe-Leu-Lys-Gln-Ala-Trp (Ac-AMVSEFLKQAW) [Ac2-12, commercial peptide of annexin 1] |  | 
 | CC(C(=O)O)c1ccc(-c2ccccc2)c(F)c1 (stereo not drawn) [flurbiprofen] | no effect | 
